Assay results published in patent US7855200B2, “Method for treatment of gastric ulcers and ulcers induced by aspirin” (Council of Scientific and Industrial Research, priority 2006, dated 2010).

Experiments:
Format in all cases: in vivo, albino rats
[1] = system: acetyl salicylic acid induced gastric lesions; assay: Acetyl salicylic acid (aspirin) induced gastric ulcer; set-up: Ulcer index Mean(SE): scale not given here; conditions: rats, 25 mg/kg per orally daily for five days, aspirin 200 mg/kg; for inhibition at 25 mg/kg: Rattus norvegicus, po, 120 h
Experimental: Stress induced gastric ulceration The commercially available drug ranitidine (sigma), Omeprazole (sigma) and sucralfate (Merck) were used as reference standard in experimental models. The Tween-80 (SD fine chemicals) was used as vehicle for the administration of the drug, which is used as control. Antiulcer activity of the compounds under taken was studied. The animals were divided into 20 groups of 6 animals each. Group 1 received the vehicle Tween 80 (1%, 1 ml) which served as the control. Group 2 received ranitidine at a dose of 50-mg/kg body weight, which served as standard for comparison. Group 3 to 20 at a dose of 25 mg/kg body weight. Rats were administered per orally with a daily dose of the compounds and the drug ranitidine for a period of five days and then fasted for 24 hours. The […] acetyl salicylic acid (aspirin) at a dose of 200 mg/kg body weight was administered as a suspension in tween-80 (1%), 30 min after the drug administration each day. All drugs were administered orally on the 6th day after the last administration of the drugs and the ulcer inducing agent aspirin, the rats were killed by cervical dislocation and their stomach were opened along the greater curvature and washed with luke warm saline and examined under a dissecting microscope. The ulcer index was calculated for each stomach. […] The antiulcer activity of the compounds was studied. The animals were divided into 19 groups of 6 animals each. Group 1 received the vehicle Tween 80 (1%, 1 ml) which served as the control. Group 2 received ranitidine at a dose of 50-mg/kg-body weight, which served as standard for comparison. […] Rats were administered per orally with a daily dose of the compounds and the drug ranitidine to respective groups for a period of five days and then fasted for 24 hours. The […] acetyl salicylic acid (aspirin) at a dose of 200 mg/kg body weight was administered as a suspension in tween-80 (1%), 30 min after the drug administration each day. All drugs were administered orally on ht […] day after the last administration of the drugs and the ulcer inducing agent aspirin, the rats were killed by cervical dislocation and their stomach were opened along the greater curvature and washed with luke warm saline and examined under a dissecting microscope.

[2] = system: gastric ulceration in cold restraint rats; assay: Cold restraint (stress) induced ulcers; set-up: Ulcer index Mean(SE): scale not given here; conditions: rats, 25 mg/kg per orally, 4° C. for 2 hours; for inhibition at 25 mg/kg: Rattus norvegicus, po
Text: (§1) The compounds taken under study for antigastric ulcer screening by four different models were selected using experimental albino rats: • 1. Aspirin induced gastric ulceration • 2. Pylorus ligated gastric ulceration • 3. Ethanol induced gastric ulceration • 4. Stress induced gastric ulceration
(§2) The commercially available drug ranitidine (sigma), Omeprazole (sigma) and sucralfate (Merck) were used as reference standard in experimental models. The Tween-80 (SD fine chemicals) was used as vehicle for the administration of the drug, which is used as control.
(§3) The antiulcer activity of the compounds was studied. The animals were divided into 21 groups of 7 animals each. Group 1 received the vehicle Tween 80 (1%, 1 ml) which served as the control. Group 2 received ranitidine at a dose of 50-mg/kg body weight, which served as standard for comparison. Group 3 to 21 at a dose of 25 mg/kg body weight. Animals were deprived of food 48 hours before the experiment. The water was allowed for free access. Rats were administered per orally with compounds and the drug ranitidine. The water was removed 1 hour before restraint and exposed to a temperature of 4° C. for 2 hours. Two hours after stress, the animals were sacrificed. The stressed animals were opened along the greater curvature and the severity of gastric ulcer was assessed in terms of mean ulcer index. 2.
as §3, with “8” for “21”, “6” for “7”, “50, 25, 15, 10 and 5” for “25”, “weight respectively.” for “weight.”, “index.” for “index. 2.”

Pylorus ligated rats = assay: Pylorus ligated ulcers; conditions: 25 mg/kg, 4 hours after pylorus ligation; for inhibition at 25 mg/kg: Rattus norvegicus
Text: as §1, §2
The animals were divided into 19 groups of 6 animals each. Animals were deprived of food for 48 hours but had free access to water. Group 1 received the vehicle Tween 80 (1%, 1 ml) which served as the control. Group 2 received ranitidine at a dose of 50-mg/kg-body weight, which served as standard for comparison. […] After one hour of administration of drug the stomach was ligated at the pylorus under ether anesthesia. 4 hours after pylorus ligation, the animals were sacrificed and the contents drained and centrifuges at 5000 rpm for 10 minutes. Aliquots of supernatant were used for determination of total acid by titrating with 0.01N NaOH using topfers reagent and phenolphthalein indicators. 4.
The animals were divided into 7 groups of 6 animals each. Animals were deprived of food for 48 hours but had free access to water. Group 1 received the vehicle Tween 80 (1%, 1 ml) which served as the control. Group 2 received ranitidine at a dose of 50-mg/kg-body weight, which served as standard for comparison. Group 3 to 7 received at a dose of 50, 25, 15, 10 and 5 mg/kg body weight respectively. After one hour of administration of drug the stomach was ligated at the pylorus under ether anesthesia. 4 hours after pylorus ligation, the animals were sacrificed and the contents drained and centrifuges at 5000 rpm for 10 minutes. Aliquots of supernatant were used for determination of total acid by titrating with 0.01N NaOH using topfers reagent and phenolphthalein indicators.

[3] = system: ethanol induced gastric ulcers; assay: Ethanol induced ulcers; conditions: rats, 25 mg/kg, ethanol challenge; for inhibition at 25 mg/kg: Rattus norvegicus; for Acidity Total mEg / Gastric content / pH: 4 hours after pylorus ligation
Experimental: Stress induced gastric ulceration The commercially available drug ranitidine (sigma), Omeprazole (sigma) and sucralfate (Merck) were used as reference standard in experimental models. The Tween-80 (SD fine chemicals) was used as vehicle for the administration of the drug, which is used as control. The animals were divided into 22 groups of 6 animals each. Animals were deprived of food for 48 hours but had free access to water. Group 1 received the vehicle Tween 80 (1%, 1 ml) which served as the control. Group 2 received ranitidine at a dose of 50-mg/kg-body weight, which served as standard for comparison. Group 3 to received Omeprazole at a dose of 30-mg/kg body weight, which served as standard for comparison. Group 4 received sucralfate at a dose of 400-mg/kg body weight, which served as standard for comparison. Group 5 to 22 received at a dose of 25 mg/kg body weight. Lesions were induced 1 hour after ethanol challenge animals. The stomach was ligated at the pylorus under ether anesthesia. 4 hours after pylorus ligation, the animals were sacrificed and the contents drained and centrifuges at 5000 rpm for 10 minutes. Aliquots of supernatant were used for determination of total acid by titrating with 0.01N NaOH using topfers reagent and phenolphthalein indicators. […] The animals were divided into 9 groups of 6 animals each. Animals were deprived of food for 48 hours but had free access to water. Group 1 received the vehicle Tween 80 (1%, 1 ml) which served as the control. Group 2 received ranitidine at a dose of 50-mg/kg-body weight, which served as standard for comparison. Group 3 to received Omeprazole at a dose of 30-mg/kg body weight, which served as standard for comparison. Group 4 received sucralfate at a dose of 400-mg/kg body weight, which served as standard for comparison. […] Lesions were induced 1 hour after ethanol challenge animals. The stomach was ligated at the pylorus under ether anesthesia. 4 hours after pylorus ligation, the animals were sacrificed and the contents drained and centrifuges at 5000 rpm for 10 minutes. Aliquots of supernatant were used for determination of total acid by titrating with 0.01N NaOH using topfers reagent and phenolphthalein indicators.

## O=c1cc(-c2ccccc2)oc2cc(OCCCN3CCCCC3)cc(O)c12 [CPP-2, 5-Hydroxy-2-phenyl-7-(3-piperidin-1-yl-propoxy)-chromen-4-one]
[1]
  inhibition at 25 mg/kg: 66.8%
  Ulcer index Mean(SE): 14.99
[2]
  inhibition at 25 mg/kg: 61.4%
  Ulcer index Mean(SE): 15.71
Pylorus ligated rats
  Acidity Total mEg: 29.06 (±2.20) m Eg
  Gastric content: 2.60 (±0.24)
  Ulcer index Mean(SE): 15.80 (±2.71)
  pH: 3.25 (±0.11)
  inhibition at 25 mg/kg: 68.5%
[3]
  inhibition at 25 mg/kg: 36.2%
  Ulcer index Mean(SE): 28.83 (±2.71)
  Acidity Total mEg: 44.60 (±4.12) mEg
  Gastric content: 3.2 (±0.62)
  pH: 3.33 (±0.16)

## O=c1cc(-c2ccccc2)oc2cc(O)cc(O)c12 [Chrysin, 5,7-dihydroxy-2-phenyl-chromen-4-one]
[1]
  inhibition at 25 mg/kg: 46.7%
  Ulcer index Mean(SE): 24.06
[2]
  inhibition at 25 mg/kg: 42.7%
  Ulcer index Mean(SE): 23.03
Pylorus ligated rats
  Acidity Total mEg: 56.00 (±0.82) m Eg
  Gastric content: 1.85 (±0.82)
  Ulcer index Mean(SE): 37.21 (±0.26)
  pH: 4.00 (±0.40)
  inhibition at 25 mg/kg: 25.7%
[3]
  inhibition at 25 mg/kg: 9.01%
  Ulcer index Mean(SE): 60.66 (±2.88)
  Acidity Total mEg: 48.00 (±2.20) mEg
  Gastric content: 4.20 (±0.02)
  pH: 3.20 (±0.40)

## COc1cc(O)c2c(=O)cc(-c3ccccc3)oc2c1 [Methoxy chrysin, 5-hydroxy-7-methoxy-2-phenyl-chromen-4-one]
[1]
  inhibition at 25 mg/kg: 11.3%
  Ulcer index Mean(SE): 40.00
[2]
  inhibition at 25 mg/kg: 8.77%
  Ulcer index Mean(SE): 27.14
Pylorus ligated rats
  Acidity Total mEg: 47.20 (±2.40) m Eg
  Gastric content: 2.20 (±0.44)
  Ulcer index Mean(SE): 48.80 (±3.07)
  pH: 3.20 (±0.25)
  inhibition at 25 mg/kg: 2.62%
[3]
  inhibition at 25 mg/kg: 15%
  Ulcer index Mean(SE): 46.66 (±1.66)
  Acidity Total mEg: 49.20 (±4.12) mEg
  Gastric content: 3.9 (±0.40)
  pH: 2.91 (±0.15)

## CN1CCN(CCCOc2cc(O)c3c(=O)cc(-c4ccccc4)oc3c2)CC1 [NMC-2, 5-Hydroxy-7-[3-(4-methyl-piperzin-1-yl]-propoxy)-2-phenyl hromen-4-one]
[1]
  Inhibition %: 48.30%
  Ulcer index Mean(SE): 23.33
[2]
  Inhibition %: 59.67%
  Ulcer index Mean(SE): 16.42
Pylorus ligated rats
  Acidity Total mEg: 36.26 (±2.80) m Eg
  Gastric content: 1.90 (±0.62)
  Inhibition %: 43.47%
  Ulcer index Mean(SE): 28.33 (±0.10)
  pH: 4.25 (±0.14)
[3]
  Inhibition %: 57.50%
  Ulcer index Mean(SE): 28.33 (±3.33)
  Acidity Total mEg: 30.26 (±0.42) mEg
  Gastric content: 4.8 (±0.06)
  pH: 4.75 (±0.28)

## CN1CCN(CCCCOc2cc(O)c3c(=O)cc(-c4ccccc4)oc3c2)CC1 [NMC-3, 5-Hydroxy-7-[4-(4-methyl-piperzin-1-yl]-butoxy)-2-phenyl chromen-4-one]
[1]
  Inhibition %: 33.52%
  Ulcer index Mean(SE): 30.00
[2]
  Inhibition %: 57.92%
  Ulcer index Mean(SE): 17.13
Pylorus ligated rats
  Acidity Total mEg: 43.48 (±2.50) m Eg
  Gastric content: 1.92 (±0.20)
  Inhibition %: 33.49%
  Ulcer index Mean(SE): 33.33 (±2.47)
  pH: 3.54 (±0.15)
[3]
  Inhibition %: 36.25%
  Ulcer index Mean(SE): 42.50 (±3.09)
  Acidity Total mEg: 33.48 (±2.28) mEg
  Gastric content: 4.5 (±1.12)
  pH: 4.50 (±0.18)

## COc1c(OC2OC(C(=O)O)C(O)C(O)C2O)cc2oc(-c3ccccc3)cc(=O)c2c1O (stereo not drawn) [OA-5 acid, 3,4,5-Trihydroxy-6-(5-hydroxy-6-methoxy-4-oxo-2-phenyl-4H-chromen-7-yloxy)-tetrahydro-pyran-2-carboxylic acid]
[1]
  inhibition at 25 mg/kg: 48.3%
  Ulcer index Mean(SE): 23.33
[2]
  inhibition at 25 mg/kg: 41.9%
  Ulcer index Mean(SE): 23.33
Pylorus ligated rats
  Acidity Total mEg: 41.00 (±0.57) m Eg
  Gastric content: 2.16 (±0.16)
  Ulcer index Mean(SE): 38.33 (±1.66)
  pH: 3.03 (±0.03)
  inhibition at 25 mg/kg: 23.5%
[3]
  inhibition at 25 mg/kg: 45%
  Ulcer index Mean(SE): 36.66 (±3.33)
  Acidity Total mEg: 47.66 (±1.45) mEg
  Gastric content: 5.50 (±0.28)
  pH: 3.20 (±0.17)
